Measured values: ChEMBL document CHEMBL5260827, “Fructose-1,6-bisphosphatase inhibitors: A new valid approach for management of type 2 diabetes mellitus” (Eur J Med Chem, 2017)
Values belong to the compound of their own block, whether it stands above or below them.

Key:
[1] = Tmax in Cynomolgus monkey at 10 mg/kg, po upto 24 hrs by LC/MS/MS analysis; type: ADME, organism-based, Macaca fascicularis; details: in vivo
Hepatocyte = test: Inhibition of glucose production in human hepatocyte assessed as reduction in […]; type: functional, cell-based
Rattus norvegicus = test: Hypoglycemic activity in ZDF rats assessed as reduction in blood glucose level at 10 to 300 mg/kg, po; type: functional; details: dose 10-300 mg/kg
[2] = Oral bioavailability in cynomolgus monkey at 10 mg/kg; type: ADME, organism-based, Macaca fascicularis; details: in vivo
[3] = Inhibition of Cynomolgus monkey FBPase; parameters: species or system Macaca fascicularis
Mus musculus = test: Hypoglycemic activity in db/db mouse assessed as reduction in blood glucose level at 300 mg/kg, po administered for 5 days; type: functional; details: time 5 day
[4] = Half life in Cynomolgus monkey at 10 mg/kg, po; type: ADME, organism-based, Macaca fascicularis; details: in vivo
[5] = Inhibition of rat FBPase
[6] = Cmax in Cynomolgus monkey at 10 mg/kg, po measured after 3 hrs by LC/MS/MS analysis; type: ADME, organism-based, Macaca fascicularis; parameters: dose 10 mg/kg, time 3 hrs, route po; details: in vivo
[7] = biological target: T1, Fructose-1,6-bisphosphatase 1 (Homo sapiens, UniProt P09467); test: Inhibition of human liver FBPase
T1 sequence (P09467 whole entry): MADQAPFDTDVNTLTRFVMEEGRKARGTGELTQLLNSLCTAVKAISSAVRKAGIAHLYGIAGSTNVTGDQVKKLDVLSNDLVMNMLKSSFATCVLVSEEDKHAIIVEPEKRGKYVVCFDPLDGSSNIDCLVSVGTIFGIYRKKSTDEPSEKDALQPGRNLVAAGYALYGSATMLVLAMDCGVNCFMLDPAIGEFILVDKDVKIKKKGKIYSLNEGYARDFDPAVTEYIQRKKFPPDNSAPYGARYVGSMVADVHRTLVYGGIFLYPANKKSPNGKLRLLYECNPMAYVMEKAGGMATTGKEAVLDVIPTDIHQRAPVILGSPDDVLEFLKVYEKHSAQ

[8] = biological target: T1, Fructose-1,6-bisphosphatase 1; test: Inhibition of human liver FBPase by spectrophotometric method; type: tissue-based
[9] = biological target: T1, Fructose-1,6-bisphosphatase 1; test: Inhibition of human liver FBPase expressed in Escherichia coli BL21 (DE3) measured after 48 hrs by spectrophotometry analysis
[10] = biological target: T1, Fructose-1,6-bisphosphatase 1; test: biochemical

Description for Oryctolagus cuniculus: Binding affinity to recombinant rabbit FBPase expressed in Escherichia coli assessed as maximal activity

Compound: CCOc1cc2ncnc(Nc3cccc(Cl)c3)c2cc1OCC
Km (Oryctolagus cuniculus): 2.7 µM

Compound: N#Cc1ccc(C(C(=O)NCCc2ccc(O)cc2)N2C(=O)C3Cc4ccc(O)cc4CN3C(=O)C2CC2CCCCC2)cc1 (stereo unspecified)
IC50 [8]: 370 nM

Compound: O=P(O)(O)OC[C@H]1O[C@H](COP(=O)(O)O)[C@@H](O)[C@@H]1O
IC50 [8]: 2000 nM

Compound: COc1ccc(CC(=O)Nc2cccc(-c3nnc(-c4ccc(C)cc4)o3)c2)cc1OC
IC50 [7]: 4.51 µM

Compound: COC(=O)c1ccc(S(=O)(=O)n2cccc2)cc1
IC50 [9]: 32 nM

Compound: CC1SC(=O)NN=C1c1ccc2[nH]c(-c3ccc(-n4ccnc4)cc3)nc2c1 (stereo unspecified)
IC50 [8]: 36000 nM

Second part, led by results:

Tmax [1]: 3.3 h
bioavailability [2]: 52%
IC50 [3]: 121 nM
half-life [4]: 456 min
IC50 [5]: 189 nM
Cmax [6]: 2100 ng/mL
Compound: CC(C)(C)C(=O)c1sc(N)nc1-c1ccc(P(=O)(O)O)o1
EC50 (Hepatocyte): 140 nM
Activity (Rattus norvegicus): 200 mg/dL
Activity (Mus musculus): 350 mg/dL

IC50 [7]: 15.4 µM
Compound: COc1ccc(CC(=O)Nc2cccc(-c3nnc(-c4cccc(Cl)c4)o3)c2)cc1OC

IC50 [8]: 34 nM
Compound: CC(C)Cn1c(C2CCC(P(=O)(O)O)O2)nc2c(N)c(F)cc(CCBr)c21 (stereo unspecified)

IC50 [8]: 11 nM
Compound: CCCC(C)C(=O)c1sc(N)nc1-c1ccc(P(=O)(O)O)o1 (stereo unspecified)

IC50 [10]: 700 µM
Compound: CSc1nc(N)c2nc(-c3ccc(P(=O)(O)O)o3)n(CC(C)C)c2n1

IC50 [8]: 700 nM
Compound: CSc1nc(N)c2nc(-c3ccc(P(=O)(O)O)o3)n(CC(C)(C)C)c2n1

IC50 [8]: 1600 nM
Compound: CC1=CC=CN2C(CC(C)C)C(c3ccc(P(=O)(O)O)o3)=NC12 (stereo unspecified)
